Tests used:
[1] = target: T1, recombinant BRD4 BD1 (Homo sapiens, UniProt O60885); test: Competitive fluorescence-polarization (FP) binding assay, BRD4 BD1; settings: competitive FP assay; protein 10 nM, probe […]; read-out: IC50 (nM) BRD4 BD1; also: probe 1.5 nM
T1 construct: for recombinant BRD4 BD1 and BRD4 BD2 proteins
Protocol: (§1) Fluorescence Polarization (FP) competitive binding studies were carried out using a FAM labeled fluorescent probe (ZBA248 or BRD-1F) to determine binding affinities of representative Compounds of the Disclosure for recombinant BRD4 BD1 and BRD4 BD2 proteins. For example, equilibrium dissociation constants (Kd) values of ZBA248 to these […] proteins were determined from protein saturation experiments by monitoring the total fluorescence polarization of mixtures composed with the fluorescent probe at a fixed concentration and proteins with increasing concentrations up to full saturation. Serial dilutions of testing protein were mixed with ZBA248 to a final volume of 200 μl in the assay buffer. […] Plates were incubated at room temperature for 30 minutes with gentle shaking to assure equilibrium. […] Kd values of ZBA248 were calculated by fitting the sigmoidal dose-dependent FP increases as a function of protein concentrations using Graphpad Prism 6.0 software (Graphpad Software, San Diego, Calif.).
(§2) The IC50 and Ki values of representative Compounds of the Disclosure were determined in a competitive binding experiment as described above. Mixtures of 10 μl of the tested compounds in assay buffer with 40% Ethylene Glycol and 190 μl of preincubated protein/probe complex solution in the assay buffer (100 mM potassium phosphate, pH 6.5, 0.01% Triton X-100) were added into assay plates which were incubated at room temperature for 30 minutes with gentle shaking. Final concentrations of proteins were 10 and 6 nM in assays for BD1 and BD2 of BRD4, respectively. […] FP values were measured as described above. IC50 values were determined by nonlinear regression fitting of the competition curves.

[2] = target: T2, recombinant BRD4 BD2 (Homo sapiens, UniProt O60885); test: Competitive fluorescence-polarization (FP) binding assay, BRD4 BD2; settings: competitive FP assay; protein 6 nM, probe […]; read-out: IC50 (nM) BRD4 BD2; also: probe 1.5 nM
T2 construct: for recombinant BRD4 BD1 and BRD4 BD2 proteins
Protocol: as §1, §2

[3] = test system: MOLM-13; test: Cell growth inhibition, MOLM-13 leukemia cells (CellTiter-Glo); format: cell-based; settings: Homo sapiens, MOLM-13, 96 h; 4 days; read-out: IC50 (nM) MOLM-13 Cell Line (CellTiter-Glo assay)
Protocol: Cell growth inhibitory activity of representative Compounds of the Disclosure was determined using CellTiter-Glo® Luminescent Cell Viability Assay. […] Cell viability was determined using the CellTiter-Glo® Luminescent Cell Viability Assay Kit (Promega, Madison, Wis.) according to the manufacture's instruction. Briefly, a volume of CellTiter-Glo® Reagent equal to the volume of cell culture medium was added to each well, and then the plates were incubated at room temperature for 10-20 minutes. The luminescent signal was measured using a Tecan Infinite M1000 multimode microplate reader (Tecan, Morrisville, N.C.). The half maximal inhibitory concentration (IC50) was calculated using the GraphPad Prism 5 software (GraphPad Software, La Jolla, Calif.).

[4] = test system: MDA-MB-436; test: Cell growth inhibition, MDA-MB-436 breast cancer cells (WST-8); format: cell-based; settings: Homo sapiens, MDA-MB-436, 96 h; 4 days; read-out: IC50 (nM) MDA-MB-436 Cell Line (WST assay)
Protocol: All the breast cancer cell lines were obtained from the ATCC. Cell viability was determined using the WST-8 (2-(2-methoxy-4-nitrophenyl)-3-(4-nitrophenyl)-5-(2,4-disulfophenyl)-2H-tetrazolium, monosodium salt) based Cell Counting-8 Kit (Dojindo Molecular Technologies, Inc., Rockville, Md.) according to the manufacture's instruction. […] The absorbance was measured at 450 nm using a SPECTRAmax PLUS plate reader (Molecular Devices, Sunnyvale, Calif.). The IC50 was calculated using the GraphPad Prism 5 software.

SMILES	IC50 [1]	IC50 [2]	IC50 [3]	IC50 [4]
COc1cc2c(cc1-c1c(C)noc1C)[nH]c1nc(C)nc(Nc3c(C)c(C)nn3C3CCC3)c12 [Cpd. No. 187, N-(1-cyclobutyl-3,4-dimethyl-1H-pyrazol-5-yl)-7-(3,5-dimethylisoxazol-4-yl)-6-methoxy-2-methyl-9H-pyrimido[4,5-b]indol-4-amine]	10.5 nM	10.9 nM	38.8 nM	121 nM
COc1cc2c(cc1-c1c(C)noc1C)[nH]c1nc(C)nc(Nc3c(C)c(C4CC4)nn3C)c12 [Cpd. No. 147, N-(3-Cyclopropyl-1,4-dimethyl-1H-pyrazol-5-yl)-7-(3,5-dimethylisoxazol-4-yl)-6-methoxy-2-methyl-9H-pyrimido[4,5-b]indol-4-amine]	59.9 nM	93.7 nM	201 nM	319 nM
COc1cc2c(cc1-c1c(C)noc1C)[nH]c1nc(C)nc(Nc3c[nH]nc3-c3ccccc3)c12 [Cpd. No. 2, 7-(3,5-Dimethylisoxazol-4-yl)-6-methoxy-2-methyl-N-(3-phenyl-1H-pyrazol-4-yl)-9H-pyrimido[4,5-b]indol-4-amine]	–	41.9 nM	68 nM	246 nM
COc1cc2c(cc1-c1c(C)noc1C)[nH]c1nc(C)nc(Nc3cccc4ncsc34)c12 [Cpd. No. 229, N-(7-(3,5-dimethylisoxazol-4-yl)-6-methoxy-2-methyl-9H-pyrimido[4,5-b]indol-4-yl)benzo[d]thiazol-7-amine]	24 nM	22 nM	69 nM	88 nM
COc1cc2c(cc1-c1c(C)noc1C)[nH]c1nc(C)nc(Nc3nn(C)c4ccncc34)c12 [Cpd. No. 11, 7-(3,5-dimethylisoxazol-4-yl)-6-methoxy-2-methyl-N-(1-methyl-1H-pyrazolo[4,3-c]pyridin-3-yl)-9H-pyrimido[4,5-b]indol-4-amine]	240 nM	235 nM	23.9 nM	398 nM
COc1cc2c(cc1-c1c(C)noc1C)[nH]c1nc(C)nc(Nc3nn(CCO)c4ccccc34)c12 [Cpd. No. 131, 2-(3-((7-(3,5-Dimethylisoxazol-4-yl)-6-methoxy-2-methyl-9H-pyrimido[4,5-b]indol-4-yl)amino)-1H-indazol-1-yl)ethanol]	9.6 nM	51.4 nM	32.7 nM	97.6 nM
COc1cc2c(cc1-c1c(C)noc1C)[nH]c1nc(C)nc(Nc3cc(C)nn3-c3ccccc3)c12 [Cpd. No. 1, 7-(3,5-Dimethylisoxazol-4-yl)-6-methoxy-2-methyl-N-(3-methyl-1-phenyl-1H-pyrazol-5-yl)-9H-pyrimido[4,5-b]indol-4-amine]	–	21.8 nM	29.8 nM	148 nM
COc1cc2c(cc1-c1c(C)noc1C)[nH]c1nc(C)nc(Nc3sc(-c4ncco4)nc3-c3ccccc3)c12 [Cpd. No. 6, N-(7-(3,5-Dimethylisoxazol-4-yl)-6-methoxy-2-methyl-9H-pyrimido[4,5-b]indol-4-yl)-2-(oxazol-2-yl)-4-phenylthiazol-5-amine]	–	–	52.6 nM	1520 nM
COc1cc2c(cc1-c1c(C)noc1C)[nH]c1nc(C)nc(Nc3nn(C)c4ccccc34)c12 [Cpd. No. 12, 7-(3,5-Dimethylisoxazol-4-yl)-6-methoxy-2-methyl-N-(1-methyl-1H-indazol-3-yl)-9H-pyrimido[4,5-b]indol-4-amine]	–	28.2 nM	15.2 nM	59.6 nM
COc1cc2c(cc1-c1c(C)noc1C)[nH]c1nc(C)nc(Nc3cc(C(F)(F)F)nn3C(C)(C)C)c12 [Cpd. No. 117, N-(1-(tert-Butyl)-3-(trifluoromethyl)-1H-pyrazol-5-yl)-7-(3,5-dimethylisoxazol-4-yl)-6-methoxy-2-methyl-9H-pyrimido[4,5-b]indol-4-amine]	62.4 nM	–	90.9 nM	177 nM

— patent US9580430B2, “9H-pyrimido[4,5-B]indoles and related analogs as BET bromodomain inhibitors” (THE REGENTS OF THE UNIVERSITY OF MICHIGAN, priority 2014, dated 2017)
